According to publication PMC3545969, “Mutagenicity and antimutagenicity of (−)-hinokinin a trypanosomicidal compound measured by Salmonella microsome and comet assays” (BMC Complementary and Alternative Medicine, 2012):
Where two headings read alike, the source gives them in different places. Marks after values point to notes of the source that are not given here.

Legend:
[1] = tested on: Salmonella typhimurium TA98
[2] = tested on: Salmonella typhimurium TA100
[3] = tested on: S. typhimurium strains TA98, TA100, TA102 and TA97a; settings: HK 9.7 - 78.0 μg/plate, +S9 and −S9
[4] = tested on: Salmonella typhimurium TA98; remark: listed apart in the source
rat peripheral blood = tested on: rat peripheral blood; parameters: method as in PMID 17141387; settings: cited from earlier work
[5] = tested on: Chinese hamster lung fibroblast V79 cells; parameters: method as in PMID 20452459; settings: cited from earlier work
[6] = tested on: Salmonella typhimurium TA102
[7] = tested on: Salmonella typhimurium TA97a; settings: TA 97a
[8] = TA 98, − S9, HK 19.5 μg/plate + NOPD 10.0 μg/plate
[9] = TA 98, − S9, HK 39.0 μg/plate + NOPD 10.0 μg/plate
[10] = TA 98, − S9, HK 58.5 μg/plate + NOPD 10.0 μg/plate
[11] = TA 98, − S9, HK 78.0 μg/plate + NOPD 10.0 μg/plate
[12] = TA 98, − S9, HK […] + NOPD 10.0 μg/plate

## O=C1OC[C@H](Cc2ccc3c(c2)OCO3)[C@H]1Cc1ccc2c(c1)OCO2 [HK, (−)-hinokinin]
[1]; TA 98, + S9, HK 19.5 μg/plate + B[a]P 1.0 μg/plate
  % inhibition: 32** %
[1]; TA 98, + S9, HK 39.0 μg/plate + B[a]P 1.0 μg/plate
  % inhibition: 36** %
[1]; TA 98, + S9, HK 58.5 μg/plate + B[a]P 1.0 μg/plate
  % inhibition: 52*** %
[1]; TA 98, + S9, HK 78.0 μg/plate + B[a]P 1.0 μg/plate
  % inhibition: 59*** %
[1]; TA 98, + S9, HK […] + B[a]P 1.0 μg/plate
  % inhibition: 31** %
[1]; [8]
  % inhibition: 21* %
  Number of revertants(M ± SD)/ plate: 507 + 15 revertants/plate
[1]; [9]
  % inhibition: 26** %
  Number of revertants(M ± SD)/ plate: 477 + 5 revertants/plate
[1]; [10]
  % inhibition: 19* %
  Number of revertants(M ± SD)/ plate: 521 + 9 revertants/plate
[1]; [11]
  % inhibition: 25** %
  Number of revertants(M ± SD)/ plate: 480 + 16 revertants/plate
[1]; [12]
  % inhibition: 18* %
  Number of revertants(M ± SD)/ plate: 525 + 7 revertants/plate
[2]; TA 100, + S9, HK 19.5 μg/plate
  MI (mutagenicity index): 1.0
  Number of revertants(M ± SD)/ plate: 128 ± 6 revertants/plate
[2]; TA 100, + S9, HK 39.0 μg/plate
  MI (mutagenicity index): 0.9
  Number of revertants(M ± SD)/ plate: 115 ± 8 revertants/plate
[2]; TA 100, + S9, HK 58.5 μg/plate
  MI (mutagenicity index): 1.1
  Number of revertants(M ± SD)/ plate: 134 ± 2 revertants/plate
[2]; TA 100, + S9, HK 78.0 μg/plate
  MI (mutagenicity index): 1.0
  Number of revertants(M ± SD)/ plate: 120 ± 8 revertants/plate
[2]; TA 100, - S9, HK 19.5 μg/plate
  MI (mutagenicity index): 1.0
  Number of revertants(M ± SD)/ plate: 129 ± 6 revertants/plate
[2]; TA 100, - S9, HK 39.0 μg/plate
  MI (mutagenicity index): 1.0
  Number of revertants(M ± SD)/ plate: 134 ± 5 revertants/plate
[2]; TA 100, - S9, HK 58.5 μg/plate
  MI (mutagenicity index): 0.8
  Number of revertants(M ± SD)/ plate: 112 ± 3 revertants/plate
[2]; TA 100, - S9, HK 78.0 μg/plate
  MI (mutagenicity index): 1.1
  Number of revertants(M ± SD)/ plate: 140 ± 9 revertants/plate
[3]
  mutagenic activity (number of revertant colonies relative to the negative control): did not induce any increase in the number of revertant colonies
[4]; TA 98, + S9, HK 19.5 μg/plate
  MI (mutagenicity index): 1.1
  Number of revertants(M ± SD)/ plate: 34 ± 3 revertants/plate
[4]; TA 98, + S9, HK 39.0 μg/plate
  MI (mutagenicity index): 1.0
  Number of revertants(M ± SD)/ plate: 33 ± 4 revertants/plate
[4]; TA 98, + S9, HK 58.5 μg/plate
  MI (mutagenicity index): 0.8
  Number of revertants(M ± SD)/ plate: 28 ± 1 revertants/plate
[4]; TA 98, + S9, HK 78.0 μg/plate
  MI (mutagenicity index): 1.0
  Number of revertants(M ± SD)/ plate: 31 ± 2 revertants/plate
[4]; TA 98, - S9, HK 19.5 μg/plate
  MI (mutagenicity index): 1.0
  Number of revertants(M ± SD)/ plate: 23 ± 3 revertants/plate
[4]; TA 98, - S9, HK 39.0 μg/plate
  MI (mutagenicity index): 1.1
  Number of revertants(M ± SD)/ plate: 25 ± 3 revertants/plate
[4]; TA 98, - S9, HK 58.5 μg/plate
  MI (mutagenicity index): 1.1
  Number of revertants(M ± SD)/ plate: 25 ± 2 revertants/plate
[4]; TA 98, - S9, HK 78.0 μg/plate
  MI (mutagenicity index): 1.1
  Number of revertants(M ± SD)/ plate: 24 ± 5 revertants/plate
Rat peripheral blood
  effect on chromosome damage induced by DXR, micronucleus test: effective in reducing the chromosome damage induced by DXR
  genotoxic effect, micronucleus test: no genotoxic effect
[5]; HK alone
  genotoxic effect, micronucleus test: no genotoxic effect
[5]
  effect on chromosome damage caused by MMS, micronucleus test: reduced the chromosome damage caused by MMS
[5]; higher concentrations of HK
  effect on DXR-induced clastogenicity, micronucleus test: potentiator of DXR-induced clastogenicity
[5]; lower concentrations of HK
  effect on DXR-induced clastogenicity, micronucleus test: reduction in DXR-induced clastogenicity
[6]; TA 102, + S9, HK 19.5 μg/plate
  Number of revertants(M ± SD)/ plate: 363 ± 3 revertants/plate
[6]; TA 102, + S9, HK 39.0 μg/plate
  MI (mutagenicity index): 0.9
  Number of revertants(M ± SD)/ plate: 354 ± 4 revertants/plate
[6]; TA 102, + S9, HK 58.5 μg/plate
  MI (mutagenicity index): 1.0
  Number of revertants(M ± SD)/ plate: 398 ± 9 revertants/plate
[6]; TA 102, + S9, HK 78.0 μg/plate
  MI (mutagenicity index): 1.0
  Number of revertants(M ± SD)/ plate: 402 ± 3 revertants/plate
[6]; TA 102, - S9, HK 19.5 μg/plate
  Number of revertants(M ± SD)/ plate: 231 ± 8 revertants/plate
[6]; TA 102, - S9, HK 39.0 μg/plate
  MI (mutagenicity index): 0.9
  Number of revertants(M ± SD)/ plate: 213 ± 4 revertants/plate
[6]; TA 102, - S9, HK 58.5 μg/plate
  MI (mutagenicity index): 0.8
  Number of revertants(M ± SD)/ plate: 201 ± 6 revertants/plate
[6]; TA 102, - S9, HK 78.0 μg/plate
  MI (mutagenicity index): 0.8
  Number of revertants(M ± SD)/ plate: 186 ± 2 revertants/plate
[7]; + S9, HK 19.5 μg/plate
  MI (mutagenicity index): 1.1
  Number of revertants(M ± SD)/ plate: 187 ± 3 revertants/plate
[7]; + S9, HK 39.0 μg/plate
  MI (mutagenicity index): 1.0
  Number of revertants(M ± SD)/ plate: 166 ± 5 revertants/plate
[7]; + S9, HK 58.5 μg/plate
  MI (mutagenicity index): 1.0
  Number of revertants(M ± SD)/ plate: 172 ± 2 revertants/plate
[7]; + S9, HK 78.0 μg/plate
  MI (mutagenicity index): 0.9
  Number of revertants(M ± SD)/ plate: 146 ± 4 revertants/plate
[7]; - S9, HK 39.0 μg/plate
  MI (mutagenicity index): 0.9
  Number of revertants(M ± SD)/ plate: 146 ± 5 revertants/plate
[7]; - S9, HK 58.5 μg/plate
  MI (mutagenicity index): 1.1
  Number of revertants(M ± SD)/ plate: 175 ± 4 revertants/plate
[7]; - S9, HK 78.0 μg/plate
  MI (mutagenicity index): 1.0
  Number of revertants(M ± SD)/ plate: 163 ± 8 revertants/plate
